Results from PMC6155273, “Antiprotozoal Activity of Triazole Derivatives of Dehydroabietic Acid and Oleanolic Acid” (Molecules : A Journal of Synthetic Chemistry and Natural …, 2017).
Values after ≈ are worked out from the molar mass of the structure shown. Where two headings read alike, the source gives them in different places.

What was measured:
[1] = system: L. braziliensis promastigotes; assay: Leishmanicidal activity on L. braziliensis promastigotes (resazurin); type: cell-based, Leishmania braziliensis; details: Leishmania braziliensis, 48 h, read-out: Leishmanicidal Activity on Promastigotes, L. braziliensis, IC50
Protocol: (§1) Culture of L. braziliensis (MHOM/BR/75/M2904), and L. infantum (MHOM/FR/91/LEM2259V) was obtained from the Facultad de Farmacia (Universidad Complutense de, Madrid, Spain). The maintenance of the strains, the form of cultivation, and the isolation of shape promastigota were performed following the procedures described by Roldos et al.. The promastigotes were grown at 22 °C in Schneider’s Drosophila medium supplemented with 20% FBS. The assay was performed using a modification of a previous method. Promastigotes (2 × 10^6 parasites/well) were cultured in 96-well plastic plates. Compounds were dissolved in dimethylsulfoxide (DMSO). Different dilutions of the compounds with a final volume up to 200 µL were added. After 48 h at 26 °C, 20 µL of a 2 mM resazurin solution was added, and the oxidation-reduction was quantified at 570 and 600 nm. The solution of resazurin was prepared at 2.5 mM in phosphate buffered solution (PBS), pH 7.4, and filtered through 0.22 µm prior to use. All tests were carried out in triplicate. Resazurin sodium salt was obtained from Sigma-Aldrich (St. Louis, MO, USA) and stored at 4 °C protected from light. The efficacy of each compound was estimated by calculating the IC50 values.

[2] = system: L. infantum promastigotes; assay: Leishmanicidal activity on L. infantum promastigotes (resazurin); type: cell-based, Leishmania infantum; details: Leishmania infantum, 48 h, read-out: Leishmanicidal Activity on Promastigotes, L. infantum, IC50
Protocol: as §1

T. cruzi epimastigotes = assay: Antiepimastigote activity, T. cruzi CL-B5 lacZ (CPRG); type: cell-based, Trypanosoma cruzi; details: Trypanosoma cruzi, clone CL-B5, 72 h
Protocol: For in vitro studies of T. cruzi, the clone CL-B5 was used (donated by Faculty of Pharmacy, Complutense University, Madrid, Spain). Parasites were stably transfected with the Escherichia coli β-galactosidase gene (lacZ). Epimastigotes were grown at 28 °C in liver infusion tryptose broth (Difco, Detroit, MI, USA) with 10% fetal bovine serum (FBS) (Gibco, Carlsbad, CA, USA), penicillin (Ern S.A., Barcelona, Spain), and streptomycin (Reig Jofré S.A., Barcelona, Spain), as described previously, and harvested during the exponential growth phase. Briefly, the screening assay was performed in 96-well microplates (Sarstedt, Inc., Newton, NC, USA) with cultures that had not reached the stationary phase. Epimastigotes were seeded at 2 × 10^5 parasites/mL in 200 µL growth media. The plates were then incubated with the respective compounds at 28 °C for 72 h; afterwards, 50 µL of chlorophenol red-β-D-galactopyranoside (CPRG) solution was added, resulting in a final concentration of 200 µM. The plates were incubated at 37 °C for an additional 4 h and then read at 595 nm. Each concentration was tested in triplicate. The efficacy of each compound was estimated by calculating the IC50 values. These values were calculated by the sigmoidal dose–response curve adjustment using the statistical software program Graph-Pad Prims 3.0 (GraphPhad, San Diego, CA, USA). Benznidazole was used as the reference drug.

[3] = Cytotoxicity on NCTC-Clone 929 fibroblasts (resazurin); type: cell-based; details: mouse
Protocol: The cell line used was NCTC-Clone 929, which was grown in Minimal Essential Medium (Sigma) supplemented with 10% heat-inactivated FBS, penicillin G (100 U/mL), and streptomycin (100 µg/mL). Cell cultures were maintained at 37 °C in a humidified 5% CO2 atmosphere. The procedure for cell viability measurement was evaluated with resazurin by a colorimetric method. The cells were plated in 96-microtiter plates at 3 × 10^4 cells per well in a 100 µL growth medium. The cells were grown overnight at 37 °C, 5% CO2. Thereafter, the medium was removed and the compounds were added in a 200 µL medium for 24 h. After incubation, 20 µL of a 2 mM resazurin solution was added to each well. The plates were incubated for 3 h to allow optimal oxidation-reduction. The reduction of resazurin was determined by dual wavelength absorbance measurement at 490 and 595 nm. Background was subtracted. Each concentration was assayed three times. Medium and drug controls were used in each test as blanks.

[4] = system: L. amazonensis promastigote; set-up: method as in PMID 15070160; details: cited from earlier work
[5] = system: L. amazonensis amastigote; set-up: method as in PMID 15070160; details: cited from earlier work
[6] = system: L. braziliensis, L. amazonensis, and L. infantum promastigotes; set-up: method as in PMID 26772973; details: read-out: IC50 against promastigotes of three Leishmania species; cited from earlier work
[7] = system: L. braziliensis, L. amazonensis, and L. infantum amastigote; set-up: method as in PMID 26772973; details: read-out: IC50 against amastigote of three Leishmania species; cited from earlier work
[8] = system: L. donovani promastigotes; set-up: method as in PMID 19067375; details: cited from earlier work

Row | SMILES | IC50 [1] [µg/mL] | IC50 [2] [µg/mL] | IC50 (T. cruzi epimastigotes) [µg/mL] | IC50 at 24 h [3] [µg/mL] | other results
1 | COc1ccc(-n2cc(CCC(=O)O[C@H]3CC[C@@]4(C)C(CC[C@]5(C)C4CC=C4[C@@H]6CC(C)(C)CC[C@]6(C(=O)O)CC[C@]45C)C3(C)C)nn2)cc1 (stereo partly shown) [Compound 23] | > 256 | > 256 | > 256 | > 256 | 
2 | COC(=O)[C@]12CCC(C)(C)C[C@H]1C1=CCC3[C@@]4(C)CC[C@H](OC(=O)CCc5cn(-c6ccc(OC)cc6)nn5)C(C)(C)C4CC[C@@]3(C)[C@]1(C)CC2 (stereo partly shown) [Compound 24] | > 256 | > 256 | > 256 | > 256 | 
3 | CC1(C)CC[C@]2(C(=O)O)CC[C@]3(C)C(=CCC4[C@@]5(C)CC[C@H](OC(=O)CCc6cn(Cc7ccc(Cl)cc7)nn6)C(C)(C)C5CC[C@]43C)[C@@H]2C1 (stereo partly shown) [Compound 25] | > 256 | > 256 | > 256 | > 256 | 
4 | COC(=O)[C@]12CCC(C)(C)C[C@H]1C1=CCC3[C@@]4(C)CC[C@H](OC(=O)CCc5cn(Cc6ccc(Cl)cc6)nn5)C(C)(C)C4CC[C@@]3(C)[C@]1(C)CC2 (stereo partly shown) [Compound 26] | > 256 | > 256 | > 256 | > 256 | 
5 | Cc1ccc(S(=O)(=O)n2cc(CCC(=O)O[C@H]3CC[C@@]4(C)C(CC[C@]5(C)C4CC=C4[C@@H]6CC(C)(C)CC[C@]6(C(=O)O)CC[C@]45C)C3(C)C)nn2)cc1 (stereo partly shown) [Compound 27] |  |  | 43 (≈ 58.6 µM) | > 256 | IC50 ([1]; promastigotes): > 256 µg/mL; IC50 ([2]; promastigotes): > 256 µg/mL
6 | COC(=O)[C@]12CCC(C)(C)C[C@H]1C1=CCC3[C@@]4(C)CC[C@H](OC(=O)CCc5cn(S(=O)(=O)c6ccc(C)cc6)nn5)C(C)(C)C4CC[C@@]3(C)[C@]1(C)CC2 (stereo partly shown) [Compound 28] |  |  | 61 (≈ 81.5 µM) | > 256 | IC50 ([1]; promastigotes): > 256 µg/mL; IC50 ([2]; promastigotes): > 256 µg/mL
7 | CC1(C)CC[C@]2(C(=O)O)CC[C@]3(C)C(=CCC4[C@@]5(C)CC[C@H](OC(=O)CCc6cn(CSc7ccccc7)nn6)C(C)(C)C5CC[C@]43C)[C@@H]2C1 (stereo partly shown) [Compound 29] | > 256 | > 256 | > 256 | > 256 | 
8 | COC(=O)[C@]12CCC(C)(C)C[C@H]1C1=CCC3[C@@]4(C)CC[C@H](OC(=O)CCc5cn(CSc6ccccc6)nn5)C(C)(C)C4CC[C@@]3(C)[C@]1(C)CC2 (stereo partly shown) [Compound 30] | > 256 | > 256 | > 256 | > 256 | 
9 | Cc1ccc(S(=O)(=O)n2cc(CCCC(=O)O[C@H]3CC[C@@]4(C)C(CC[C@]5(C)C4CC=C4[C@@H]6CC(C)(C)CC[C@]6(C(=O)O)CC[C@]45C)C3(C)C)nn2)cc1 (stereo partly shown) [Compound 31] | > 256 |  | > 256 | > 256 | IC50 ([2]; promastigotes): 128 µg/mL (≈ 171 µM)
10 | CC1(C)CC[C@]2(C(=O)O)CC[C@]3(C)C(=CC[C@@H]4[C@@]5(C)CC[C@H](O)C(C)(C)[C@@H]5CC[C@]43C)[C@@H]2C1 [OA, Oleanolic acid] | > 256 | > 256 | > 256 |  | IC50 against promastigote stage of L. amazonensis [4]: 10 µg/mL; IC50 against amastigote stage of L. amazonensis [5]: 11 µg/mL; IC50 [6]: 30 to 66 µM; IC50 [7]: 38 to 69 µM
11 | C[C@H]1[C@H](C)CC[C@]2(C(=O)O)CC[C@]3(C)C(=CC[C@@H]4[C@@]5(C)CC[C@H](O)C(C)(C)[C@@H]5CC[C@]43C)[C@H]12 [Ursolic acid] |  |  |  |  | IC50 against promastigote stage of L. amazonensis [4]: 5 µg/mL; IC50 against amastigote stage of L. amazonensis [5]: 27 µg/mL
12 | CC(C)c1cc2c(cc1O)[C@@]1(C)CCCC(C)(C)[C@@H]1CC2 [ferruginol] |  |  |  |  | IC50 against L. donovani promastigotes [8]: 3.5 µg/mL (≈ 12.2 µM); IC90 against L. donovani promastigotes [8]: 7.0 µg/mL (≈ 24.4 µM)
13 | CC(C)c1c(O)ccc2c1CC[C@H]1C(C)(C)CCC[C@]21C [totarol] |  |  |  |  | IC50 against L. donovani promastigotes [8]: 3.5 µg/mL (≈ 12.2 µM); IC90 against L. donovani promastigotes [8]: 6.9 µg/mL (≈ 24.1 µM)
